Key:
rice (Diamant variety) [1] = assay: Rice seed treatment with BHMPA salts: germination energy and germination rate; format: in vivo; details: for Germination energy / Germination rate: rice
Outline: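 Corn, winter wheat and rice seeds (50 per dish, on filter paper) were soaked for 1 h in BHMPA or its metal salts at 1·10^−6-1·10^−12%, with water as control. Germination energy was read on day 4 and germination rate on day 8 for wheat and day 7 for rice and corn, following GOST 12038-84, as the mean of four replicates.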

rice (Diamant variety) [2] = assay: Rice seed treatment with BHMPA salts: germinating power; format: in vivo; details: for Length, root / Length, root, + % to control / Length, sprout / Length, sprout, + % to control / Mass, dry, root / Mass, dry, root, + % to control / Mass, dry, sprout / Mass, dry, sprout, + % to control / Mass, wet, root / Mass, wet, root, + % to control / Mass, wet, sprout / Mass, wet, sprout, + % to control: rice seed treatment
Outline: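 Seeds (50 per Petri dish on two layers of filter paper) soaked 1 h in BHMPA or its Ca, Mg, Na, Co, Mn, Cu or Zn salts at 1·10^−6-1·10^−12%, with water controls. Germination energy read on day 4, germination on day 8 (wheat) or day 7 (rice, corn), as % means of four replicates. Germinating power taken as root and sprout length plus wet and dry mass per 100 seedlings.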

[3] = rice seed treatment, solution 1 · 10^−10%
[4] = comparative study vs Melaphen, 1·10^−8% solution
[5] = comparison with Melaphen (Table XXXIII), solution 1 · 10^−9%
[6] = experimental solution 1 · 10^−6%
[7] = experimental solution 1 · 10^−7%
[8] = experimental solution 1 · 10^−8%
[9] = experimental solution 1 · 10^−9%
[10] = experimental solution 1 · 10^−10%
[11] = experimental solution 1 · 10^−11%
[12] = experimental solution 1 · 10^−12%
[13] = rice, vs control, 1·10^−9% solution

## O=P([O-])(CO)CO.O=P([O-])(CO)CO.[Zn+2] [Zn-salt, Zinc BHMPA Salt]
Rice (Diamant variety) [1]; [3]
  Germination energy, %: 89.5%
  Germination rate, %: 96.5%
Rice (Diamant variety) [1]; 1·10^−6% solution
  Germination energy: 83.0%
  Germination rate: 89.0%
Rice (Diamant variety) [1]; 1·10^−7% solution
  Germination energy: 85.0%
  Germination rate: 91.7%
Rice (Diamant variety) [1]; 1·10^−8% solution
  Germination energy: 86.3%
  Germination rate: 94.3%
Rice (Diamant variety) [1]; 1·10^−9% solution
  Germination energy: 88.7%
  Germination rate: 96.0%
Rice (Diamant variety) [1]; 1·10^−10% solution
  Germination energy: 87.0%
  Germination rate: 94.0%
Rice (Diamant variety) [1]; 1·10^−11% solution
  Germination energy: 85.7%
  Germination rate: 91.3%
Rice (Diamant variety) [1]; 1·10^−12% solution
  Germination energy: 83.7%
  Germination rate: 89.0%
Rice (Diamant variety) [1]; [4]
  Germination energy: 89.5%
  Germination rate: 96.5%
Rice (Diamant variety) [2]; rice
  optimum concentration for treating rice seeds before sowing: 1·10^−9%
Rice (Diamant variety) [2]; [5]
  Length, root: 7.5 cm
  Length, root, + % to control: 56%
  Length, sprout: 4.8 cm
  Length, sprout, + % to control: 48%
  Mass, dry, root: 0.28 g/100 plantlings
  Mass, dry, root, + % to control: 33%
  Mass, dry, sprout: 0.32 g/100 plantlings
  Mass, dry, sprout, + % to control: 28%
  Mass, wet, root: 1.54 g/100 plantlings
  Mass, wet, root, + % to control: 57%
  Mass, wet, sprout: 2.57 g/100 plantlings
  Mass, wet, sprout, + % to control: 70%
Rice (Diamant variety) [2]; [6]
  Length, root: 6.2 cm
  Length, root, + % to control: 15%
  Length, sprout: 2.6 cm
  Length, sprout, + % to control: 8%
  Mass, dry, root: 0.19 g/100 plantlings
  Mass, dry, root, + % to control: 12%
  Mass, dry, sprout: 0.23 g/100 plantlings
  Mass, dry, sprout, + % to control: 4.5%
  Mass, wet, root: 1.04 g/100 plantlings
  Mass, wet, root, + % to control: 24%
  Mass, wet, sprout: 1.81 g/100 plantlings
  Mass, wet, sprout, + % to control: 24%
Rice (Diamant variety) [2]; [7]
  Length, root: 6.6 cm
  Length, root, + % to control: 22%
  Length, sprout: 2.8 cm
  Length, sprout, + % to control: 17%
  Mass, dry, root: 0.22 g/100 plantlings
  Mass, dry, root, + % to control: 29%
  Mass, dry, sprout: 0.27 g/100 plantlings
  Mass, dry, sprout, + % to control: 23%
  Mass, wet, root: 1.21 g/100 plantlings
  Mass, wet, root, + % to control: 44%
  Mass, wet, sprout: 2.10 g/100 plantlings
  Mass, wet, sprout, + % to control: 44%
Rice (Diamant variety) [2]; [8]
  Length, root: 6.8 cm
  Length, root, + % to control: 26%
  Length, sprout: 3.1 cm
  Length, sprout, + % to control: 29%
  Mass, dry, root: 0.24 g/100 plantlings
  Mass, dry, root, + % to control: 41%
  Mass, dry, sprout: 0.28 g/100 plantlings
  Mass, dry, sprout, + % to control: 27%
  Mass, wet, root: 1.29 g/100 plantlings
  Mass, wet, root, + % to control: 53.5%
  Mass, wet, sprout: 2.27 g/100 plantlings
  Mass, wet, sprout, + % to control: 55%
Rice (Diamant variety) [2]; [9]
  Length, root: 7.0 cm
  Length, root, + % to control: 30%
  Length, sprout: 3.6 cm
  Length, sprout, + % to control: 50%
  Mass, dry, root: 0.27 g/100 plantlings
  Mass, dry, root, + % to control: 59%
  Mass, dry, sprout: 0.33 g/100 plantlings
  Mass, dry, sprout, + % to control: 50%
  Mass, wet, root: 1.32 g/100 plantlings
  Mass, wet, root, + % to control: 57%
  Mass, wet, sprout: 2.31 g/100 plantlings
  Mass, wet, sprout, + % to control: 58%
Rice (Diamant variety) [2]; [10]
  Length, root: 6.9 cm
  Length, root, + % to control: 28%
  Length, sprout: 3.2 cm
  Length, sprout, + % to control: 33%
  Mass, dry, root: 0.25 g/100 plantlings
  Mass, dry, root, + % to control: 47%
  Mass, dry, sprout: 0.31 g/100 plantlings
  Mass, dry, sprout, + % to control: 41%
  Mass, wet, root: 1.26 g/100 plantlings
  Mass, wet, root, + % to control: 50%
  Mass, wet, sprout: 2.17 g/100 plantlings
  Mass, wet, sprout, + % to control: 49%
Rice (Diamant variety) [2]; [11]
  Length, root: 6.7 cm
  Length, root, + % to control: 24%
  Length, sprout: 2.8 cm
  Length, sprout, + % to control: 17%
  Mass, dry, root: 0.22 g/100 plantlings
  Mass, dry, root, + % to control: 29%
  Mass, dry, sprout: 0.29 g/100 plantlings
  Mass, dry, sprout, + % to control: 32%
  Mass, wet, root: 1.19 g/100 plantlings
  Mass, wet, root, + % to control: 42%
  Mass, wet, sprout: 2.09 g/100 plantlings
  Mass, wet, sprout, + % to control: 43%
Rice (Diamant variety) [2]; [12]
  Length, root: 5.9 cm
  Length, root, + % to control: 9%
  Length, sprout: 2.7 cm
  Length, sprout, + % to control: 12.5%
  Mass, dry, root: 0.19 g/100 plantlings
  Mass, dry, root, + % to control: 12%
  Mass, dry, sprout: 0.25 g/100 plantlings
  Mass, dry, sprout, + % to control: 14%
  Mass, wet, root: 1.05 g/100 plantlings
  Mass, wet, root, + % to control: 25%
  Mass, wet, sprout: 1.70 g/100 plantlings
  Mass, wet, sprout, + % to control: 16%
Rice (Diamant variety) [2]; [13]
  dry mass of the roots increased by: 59%
  dry mass of the sprouts increased by: 50%
  length of the root increased by: 30%
  length of the sprout increased by: 50%
  wet mass of the roots increased by: 57%
  wet mass of the sprouts increased by: 58%

From US10781224B2, “Bis(oxymethyl)phosphinic acid and biogenic metal salts thereof as regulators of plant growth and development” (priority 2016, dated 2020)
